Results: patent US9937260B2, “Curcumin conjugates for treating and preventing cancers” (BOARD OF SUPERVISORS OF LOUISIANA STATE UNIVERSITY AND …, priority 2008, dated 2018)
Non-standard residues stand in square brackets, D forms with d. Residues, ends and D or L forms follow the SMILES beside them. pGlu = O=C1CC[C@@H](C(=O)O)N1

Assays:
[1] = test system: luciferase-transfected MIAPaCa-2 xenograft tumors; assay: Human pancreatic cancer xenograft in female athymic nude mice; format: in vivo
Description: MIAPaCa-2, a cell line expressing the LHRH receptor, was then used for in vivo experiments. We stably transfected MIAPaCa-2 cells with a gene encoding luciferase. We used the transfected cells to produce a pancreatic cancer xenograft mouse model.
Forty-eight female nude mice (athymic Balb/c, 4-5 weeks old) were obtained from a commercial vendor (Charles River Laboratories, Wilmington, Mass.), and caged individually in a room maintained at constant temperature and humidity under a 12-h light and darkness cycle, and fed a regular, autoclaved chow diet with water ad libitum. […]
After the tumors were established (100-250 mm^3), the 48 mice were randomized into six different treatment groups (n=8 mice per group): (1) LHRH alone, (2) LHRH-Curcumin, (3) LHRH-Phor21, (4) unconjugated LHRH and Phor21, (5) vehicle control, and (6) a control group of tumor-bearing mice that were necropsied before treatment (baseline controls). […] Tumor volumes and mice body weights were measured twice weekly, and mice were necropsied one week after the last treatment. At necropsy, tumors, ovaries, kidneys, pancreases, lungs, spleen, several bones, and liver were removed and weighed, and metastastic cell numbers were measured by luciferase assay. The tumor volumes and weights were analyzed by one-way ANOVA, and compared among groups using an unpaired Student's t-test. […]

[2] = test system: MIAPaCa-2, BxPC-3 and PANC-1 pancreatic cancer cells; assay: Modified MTT cytotoxicity assay; format: cell-based, human
Protocol: Pancreatic cell lines MIAPaCa-2, BxPC-3, and PANC-1 were obtained from the American Type Culture Collection. All cell lines were cultured in DMEM supplemented with 10% FBS, 100 units/mL penicillin, and 100 μg/mL streptomycin. The presence and location of LHRH-receptors in these pancreatic cancer cell lines was determined by immunochemical methods.
The cytotoxicity of the peptides was determined with a modified MTT (3-(4, 5-dimethylthiazol-2-yl)-2, 5-diphenyltetrazolium bromide) assay. Briefly, MIAPaCa-2, BxPC-3 and PANG-1 cells (2000/well) were separately incubated in 96-well plates in triplicate in a cell growth medium with different concentrations of LHRH, LHRH-Curcumin, Curcumin, and LHRH-Phor21. Three wells served as controls, each receiving an equivalent volume of medium. After 24 hours, an MTT solution (5 mg/ml in PBS) was added to each well and incubated for 2 hours at 37° C., followed by extraction with buffer (20% SDS and 50% dimethylformamide). The cells were incubated overnight at 37° C. Optical absorbance of the cell suspension was then measured at 590 nm using an MRX Revelation 96-well multiscanner (Dynex Technologies, Chantilly, Va.). From these measurements the IC50 doses of the peptides were calculated. […] Values given are mean±SD of triplicate cultures.

[3] = test system: advanced pancreatic cancer; settings: cited from earlier work
caspase-3/7 = assay: Apo-ONE homogenous caspase-3/7 assay in MIAPaCa-2 cells; format: cell-based, human; settings: 5 μM, 24 hours, p<0.05, FIG. 6
Protocol: We also directly measured the effect of LHRH-curcumin on caspase 3 enzyme activity with the Apo-ONE homogenous caspase-3/7 assay kit (Promega, Madison, Wis.). This assay uses a profluorescent substrate with an optimized, bifunctional cell lysis/activity buffer. MIAPaCa-2 cells were treated in triplicate (10,000 cells per well) with the free peptide LHRH, or with the LHRH-Curcumin conjugate, in each case at a 5 μM concentration, and incubated for 24 hours. Following the 24 hour incubation, the Apo-ONE homogenous caspase-3/7 assay was performed according to the manufacturer's protocol. The buffer and 100 μL Apo-ONE caspase-3/7 assay reagent were mixed and added to the samples. Cells were then incubated for an additional hour prior to fluorescence measurements. Upon sequential cleavage and removal of the Asp-Glu-Val-Asp peptide (SEQ ID NO. 10) by caspase-3/7 activity, the rhodamine 110 leaving group became intensely fluorescent with excitation at 499 nm and an emission maximum at 512 nm. The excitation/emission was recorded on a FlexStation (Molecular Devices, Sunnyvale, Calif.) with softMax Pro version 4.8 software. The experiment was conducted in duplicate. Statistical significance was determined by a two-tailed Students t-test, using GraphPad Prism software version 5.0.

## CC(C)C[C@H](NC(=O)CNC(=O)[C@H](Cc1ccc(O)cc1)NC(=O)[C@H](CO)NC(=O)[C@H](Cc1c[nH]c2ccccc12)NC(=O)[C@H](Cc1c[nH]cn1)NC(=O)[C@@H]1CCC(=O)N1)C(=O)N[C@@H](CCCNC(=N)N)C(=O)N1CCC[C@H]1C(=O)NCC(=O)N[C@@H](CCCCN)C(=O)N[C@@H](Cc1ccccc1)C(=O)N[C@@H](C)C(=O)N[C@@H](CCCCN)C(=O)N[C@@H](Cc1ccccc1)C(=O)N[C@@H](C)C(=O)N[C@@H](CCCCN)C(=O)N[C@@H](CCCCN)C(=O)N[C@@H](Cc1ccccc1)C(=O)N[C@@H](C)C(=O)N[C@@H](CCCCN)C(=O)N[C@@H](Cc1ccccc1)C(=O)N[C@@H](C)C(=O)N[C@@H](CCCCN)C(=O)N[C@@H](CCCCN)C(=O)N[C@@H](Cc1ccccc1)C(=O)N[C@@H](C)C(=O)N[C@@H](CCCCN)C(=O)N[C@@H](Cc1ccccc1)C(=O)N[C@@H](C)C(=O)N[C@@H](CCCCN)C(=O)O [LHRH-Phor21] ([pGlu]HWSYGLRPGKFAKFAKKFAKFAKKFAKFAK-OH; C-terminus assumed)
[1]; FIG. 5(D)
  mice body weights as indicators of potential toxicity: not significantly different from control
[1]; tail vein injections
  side effects: some inflammation was seen in the mice tails at the site of injections
[2]
  relative cytotoxicity: greater cytotoxicity than that of LHRH-Curcumin

## COc1cc(/C=C/C(=O)CC(=O)/C=C/c2ccc(O)c(OC)c2)ccc1O [Curcumin, diferuloylmethane]
[2]; 24 hours, MTT, FIGS. 2(A)-2(C)
  inhibition of proliferation of pancreatic cancer cells: inhibited the proliferation of pancreatic cancer cells
[3]; oral administration
  bioavailability: poor bioavailability
[3]; oral, advanced pancreatic cancer
  patients with clinical biological activity: 2 of 21

## pGlu-His-Trp-Ser-Tyr-Gly-Leu-Arg-Pro-Gly [LHRH]
caspase-3/7
  caspase-3/7 activity: significantly increased
